Tests used:
Format in all cases: cell-based
[1] = target: T1, CCDC6-RET-BaF3 (Homo sapiens, UniProt P07949); assay: Growth inhibition of CCDC6-RET-BaF3 cells stably transfected with kinase (MTS); settings: 48 h, read-out: CCDC6-RET (IC50/nM)
T1 construct: fused on or other part: Q16204 (Coiled-coil domain-containing protein 6)
In short: (§1)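 IC50 derived from growth inhibition by MTS absorbance at 490 nm after 48 h compound exposure (top 10 μM, 1:3 steps, 8 points, 0.1% DMSO) of 2×10^4 RET-fusion (CCDC6-RET, KIF5B-RET) or wild-type BaF3 cells per well, in triplicate.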

[2] = target: T2, KIF5B-RET-BaF3 (Homo sapiens, UniProt P07949); assay: Growth inhibition of KIF5B-RET-BaF3 cells stably transfected with kinase (MTS); settings: 48 h, read-out: KIF5B-RET (IC50/nM)
T2 construct: fused on or other part: P33176 (Kinesin-1 heavy chain)
In short: as §1

[3] = test system: LC-2/AD cells; assay: Growth inhibition of RET-positive non-small cell lung cancer cells LC-2/AD (MTS); settings: Homo sapiens, LC-2/AD non-small cell lung cancer cells, 48 h
Protocol: Growth inhibitory activity of compounds on kinase RET-positive non-small cell lung cancer cells LC-2/AD
The specific test method is given as follows:
1) Medium: DMEM (Dulbecco's modified eagle medium) or RPMI 1640 (containing 10% fetal bovine serum, 100 μg/mL ampicillin, 100 μg/mL streptomycin).
2) Reagents: MTS reaction solution (containing 2 mg/mL of MTS [3-(4,5-dimethylthiazol-2-yl)-5-(3-carboxymethoxyphenyl)-2-(4-sulfophenyl)-2H-tetrazolium, inner Salt]; 100 μg/mL PES (phenazine […])).
3) Compound test: LC-2/AD cells (2×10^4 cells/well) were incubated into a 96-well culture plate, the volume of cell culture fluid was 90 μL, and then 10 μL of the compound at each gradient concentration was added (the highest concentration was 10 μM, which was diluted stepwise by ⅓, and 8 concentration points were set in total; the system contained 0.1% DMSO (dimethyl sulfoxide)). The cell plate with uniformly mixed compound was cultured in a cell culture incubator (37° C.; 5% CO2) for 48 h, then 20 μL of MTS reaction solution was added, uniformly mixed and incubated in the cell culture incubator (37° C.; 5% CO2) for 1-4 hr; OD values at 490 nm were measured by a microplate reader (VARIOSKAN FLASH, Thermo). Three parallels were set in each group of experiments, with 0.1% (a final concentration) DMSO as a negative control, and a medium without cells or compounds as a blank control. The cell growth inhibition rate was calculated by the following formula: Cell growth inhibition rate %=1−(ODexperimental group−ODblank group)/(ODnegative group−ODblank group)×100%
4) IC50 calculation: The semi-inhibitory concentration of the compound acting on cell growth was calculated using GradPad Prism 5 software according to the measured cell growth inhibition rate.

[4] = test system: wild-type BaF3; assay: Growth inhibition of wild-type BaF3 cells, broad-spectrum toxicity (MTS); settings: Mus musculus, 48 h, read-out: WT Ba/F3 (IC50/nM)
In short: as §1

T2 sequence (P07949 whole entry, change not shown, the tested form may be a part): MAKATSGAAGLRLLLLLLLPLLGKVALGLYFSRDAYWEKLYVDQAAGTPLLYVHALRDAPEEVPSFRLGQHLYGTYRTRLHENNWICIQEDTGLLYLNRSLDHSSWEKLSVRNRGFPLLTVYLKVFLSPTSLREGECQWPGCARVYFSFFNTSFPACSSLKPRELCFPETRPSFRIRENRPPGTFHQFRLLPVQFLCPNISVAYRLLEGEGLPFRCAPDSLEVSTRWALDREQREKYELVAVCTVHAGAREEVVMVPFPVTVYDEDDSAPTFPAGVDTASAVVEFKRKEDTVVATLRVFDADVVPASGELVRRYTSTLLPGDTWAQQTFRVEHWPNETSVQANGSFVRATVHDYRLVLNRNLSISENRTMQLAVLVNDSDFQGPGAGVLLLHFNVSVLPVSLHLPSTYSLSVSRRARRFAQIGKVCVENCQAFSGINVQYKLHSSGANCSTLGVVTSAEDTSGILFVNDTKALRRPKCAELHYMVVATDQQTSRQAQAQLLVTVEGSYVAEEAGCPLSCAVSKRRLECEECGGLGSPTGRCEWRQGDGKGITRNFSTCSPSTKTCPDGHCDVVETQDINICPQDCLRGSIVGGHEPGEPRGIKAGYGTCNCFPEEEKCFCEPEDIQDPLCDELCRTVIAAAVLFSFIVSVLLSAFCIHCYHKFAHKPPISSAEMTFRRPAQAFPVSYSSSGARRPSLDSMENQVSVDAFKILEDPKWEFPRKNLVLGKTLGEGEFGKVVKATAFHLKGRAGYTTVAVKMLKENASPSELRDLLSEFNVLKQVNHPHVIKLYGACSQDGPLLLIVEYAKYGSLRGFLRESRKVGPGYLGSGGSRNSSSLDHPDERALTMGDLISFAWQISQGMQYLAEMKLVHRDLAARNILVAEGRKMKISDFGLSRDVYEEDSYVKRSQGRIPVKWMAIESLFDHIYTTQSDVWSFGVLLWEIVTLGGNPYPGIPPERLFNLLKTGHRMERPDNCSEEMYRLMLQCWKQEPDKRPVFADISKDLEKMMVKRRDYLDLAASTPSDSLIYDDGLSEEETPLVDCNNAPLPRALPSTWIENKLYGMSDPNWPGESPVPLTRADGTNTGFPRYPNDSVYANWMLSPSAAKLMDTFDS
T1 sequence (P07949 whole entry, change not shown, the tested form may be a part): as above

Compound | GI50 [1] [nM] | GI50 [2] [nM] | IC50 [3] [nM] | IC50 [4] [nM]
COc1cc2nccc(Oc3ccc(NC(=O)C4(C(=O)Nc5ccc(F)cc5)CC4)cc3)c2cc1OC [Cabozantinib] | 226 | 302 | 4150 | –
Cc1ccc(Oc2nc(-c3ccncc3)nc3c2ncn3C)cc1C(=O)Nc1ccc(CN2CCN(C)CC2)c(C(F)(F)F)c1 [I-n-3] | 8.38 | 40.5 | 818 | –
Cc1ccc(C(=O)Nc2ccc(CN3CCN(C)CC3)c(C(F)(F)F)c2)cc1Oc1nc(-c2cccnc2)nc2c1cnn2C [II-m-1] | 35.2 | 8.28 | 301 | –
Cc1ccc(C(=O)Nc2cc(CN3CCN(C)CC3)cc(C(F)(F)F)c2)cc1Oc1nc(-c2ccncc2)nc2cc[nH]c12 [III-q-2] | 351 | 594 | – | 843
Cc1ccc(C(=O)Nc2cc(CN3CCN(C)CC3)cc(C(F)(F)F)c2)cc1Oc1nc(-c2cccnc2)nc2ccn(C)c12 [III-q-3] | 1400 | 1400 | – | 1380
Cc1ccc(C(=O)Nc2cc(CN3CCN(C)CC3)cc(C(F)(F)F)c2)cc1Oc1nc(-c2ccncc2)nc2ccn(C)c12 [III-q-4] | 901 | 1270 | – | 1330
Cc1ccc(Oc2nc(-c3ccncc3)nc3cc[nH]c23)cc1C(=O)Nc1cc(CN2CCN(C)CC2)cc(C(F)(F)F)c1 [III-r-2] | 386 | 535 | – | 4130
Cc1ccc(Oc2nc(-c3cccnc3)nc3ccn(C)c23)cc1C(=O)Nc1cc(CN2CCN(C)CC2)cc(C(F)(F)F)c1 [III-r-3] | 3770 | 2720 | – | 3650
Cc1ccc(Oc2nc(-c3ccncc3)nc3ccn(C)c23)cc1C(=O)Nc1cc(CN2CCN(C)CC2)cc(C(F)(F)F)c1 [III-r-4] | 187 | 325 | – | 1380
CN1CCN(Cc2ccc(NC(=O)c3cc(Oc4nc(-c5ccncc5)nc5ccn(C)c45)ccc3-c3ccncc3)cc2C(F)(F)F)CC1 [III-v-1] | 431 | 835 | – | > 10000
Cc1ccc(C(=O)Nc2cccc(C(F)(F)F)c2)cc1Oc1nc(-c2ccncc2)nc2nn(C)cc12 [IV-e-2] | 2910 | 8450 | – | 2220
Cc1ccc(Oc2nc(-c3ccncc3)nc3nn(C)cc23)cc1C(=O)Nc1ccc(CN2CCN(C)CC2)c(C(F)(F)F)c1 [IV-n-2] | 172 | 173 | 1400 | –
CN1CCN(Cc2ccc(NC(=O)c3cccc(Oc4cc(-c5cccnc5)nc5[nH]ccc45)c3)cc2C(F)(F)F)CC1 [V-I-1] | 1460 | 1460 | – | 2070
CN1CCN(Cc2ccc(NC(=O)c3cccc(Oc4cc(-c5ccncc5)nc5[nH]ccc45)c3)cc2C(F)(F)F)CC1 [V-I-2] | 169 | 169 | – | 3400
CN1CCN(Cc2ccc(NC(=O)c3cccc(Oc4cc(-c5cccnc5)nc5c4ccn5C)c3)cc2C(F)(F)F)CC1 [V-I-3] | 587 | 595 | – | 1240
CN1CCN(Cc2ccc(NC(=O)c3cccc(Oc4cc(-c5ccncc5)nc5c4ccn5C)c3)cc2C(F)(F)F)CC1 [V-I-4] | 337 | 143 | – | 1420
Cc1ccc(C(=O)Nc2ccc(CN3CCN(C)CC3)c(C(F)(F)F)c2)cc1Oc1cc(-c2cccnc2)nc2[nH]ccc12 [V-m-1] | 1020 | 473 | – | 1380
Cc1ccc(C(=O)Nc2ccc(CN3CCN(C)CC3)c(C(F)(F)F)c2)cc1Oc1cc(-c2ccncc2)nc2[nH]ccc12 [V-m-2] | 1350 | 978 | – | 905
Cc1ccc(C(=O)Nc2ccc(CN3CCN(C)CC3)c(C(F)(F)F)c2)cc1Oc1cc(-c2cccnc2)nc2c1ccn2C [V-m-3] | 1170 | 613 | – | 3370
Cc1ccc(C(=O)Nc2ccc(CN3CCN(C)CC3)c(C(F)(F)F)c2)cc1Oc1cc(-c2ccncc2)nc2c1ccn2C [V-m-4] | 1240 | 811 | – | 1420

Further lines, with some results ahead:

GI50 [1] [nM] | GI50 [2] [nM] | IC50 [3] [nM] | Compound | IC50 [4] [nM]
2900 | 2120 | – | Cc1ccc(Oc2cc(-c3cccnc3)nc3[nH]ccc23)cc1C(=O)Nc1ccc(CN2CCN(C)CC2)c(C(F)(F)F)c1 [V-n-1] | 2310
580 | 616 | – | Cc1ccc(Oc2cc(-c3ccncc3)nc3[nH]ccc23)cc1C(=O)Nc1ccc(CN2CCN(C)CC2)c(C(F)(F)F)c1 [V-n-2] | 2070
561 | 493 | – | CN1CCN(Cc2ccc(C(=O)Nc3cccc(Oc4nc(-c5ccncc5)nc5ccsc45)c3)cc2C(F)(F)F)CC1 [VI-h-2] | 3900
1950 | 1470 | – | Cc1ccc(NC(=O)c2ccc(CN3CCN(C)CC3)c(C(F)(F)F)c2)cc1Oc1nc(-c2cccnc2)nc2ccsc12 [VI-i-1] | 1530
2700 | 3960 | – | Cc1ccc(Oc2nc(-c3cccnc3)nc3ccsc23)cc1NC(=O)c1ccc(CN2CCN(C)CC2)c(C(F)(F)F)c1 [VI-j-1] | 3380
3.08 | 17 | – | Cc1ccc(Oc2nc(-c3ccncc3)nc3ccsc23)cc1NC(=O)c1ccc(CN2CCN(C)CC2)c(C(F)(F)F)c1 [VI-j-2] | 3940
2640 | 3220 | – | CN1CCN(Cc2ccc(NC(=O)c3cccc(Oc4nc(-c5cccnc5)nc5ccsc45)c3)cc2C(F)(F)F)CC1 [VI-l-1] | 4620
3240 | 2840 | – | Cc1ccc(Oc2nc(-c3cccnc3)nc3ccsc23)cc1C(=O)Nc1ccc(CN2CCN(C)CC2)c(C(F)(F)F)c1 [VI-n-1] | 4190
2170 | 2870 | – | CN1CCN(Cc2ccc(NC(=O)c3cc(Oc4nc(-c5cccnc5)nc5ccsc45)ccc3Cl)cc2C(F)(F)F)CC1 [VI-o-1] | 3990
3570 | 3430 | – | Cc1ccc(C(=O)Nc2cc(CN3CCN(C)CC3)cc(C(F)(F)F)c2)cc1Oc1nc(-c2cccnc2)nc2ccsc12 [VI-q-1] | 4360
1520 | 1470 | – | Cc1ccc(C(=O)Nc2cc(CN3CCN(C)CC3)cc(C(F)(F)F)c2)cc1Oc1nc(-c2ccncc2)nc2ccsc12 [VI-q-2] | 1520
